Test: Stability of (7aS,2′S)-2-oxo-clopidogrel in plasma, screening of TCEP dosage (Example 4)
Assay type: in vitro ADME
Method: S2. Plasma sample pre-treatment: taking 100 μl of the plasma, adding 5 μl of an internal standard working solution and 300 μl of acetonitrile respectively; after vortex mixing, centrifuging at 2-8° C. and 10,000 r/min for 10 min, and collecting the supernatant for later use.
S3. LC-MS/MS analysis: injecting 10 μl of the supernatant prepared from step S2 for determination, where the liquid chromatography conditions are: • the chromatographic column is Kinetex® 1.7 μm C18 100 A 100×2.1 mm; the column temperature is 40° C.; the mobile phase is acetonitrile-0.2% aqueous formic acid solution with a flow rate of 0.2 ml/min; and a gradient elution is carried out as specified in the table below:
ESI ion source, positive ion detection in multiple reaction monitoring mode (MRM); the quantitatively analyzed ions (7aS,2′S)-2-oxo-clopidogrel: m/z 338.100→155.000, IS: m/z 341.100→158.000, a capillary voltage of 4.0 KV, a cone voltage of 25 V, a desolvation gas temperature of 400° C. and a source temperature of 150° C. The optimal collision energy is 20 eV.
Blank plasma was taken and TCEP was added to prepare plasma containing TCEP at different concentrations (10, 50, 100 mg/ml). Subsequently, standard series solution of (7aS,2′S)-2-oxo-clopidogrel was added separately to prepare quality control samples with two concentrations of (7aS,2′S)-2-oxo-clopidogrel (0.1 and 12.0 ng/ml), 3 samples for each concentration. They were placed at room temperature and on ice, respectively, and the plasma samples at different placing time points were taken to examine the stability by pre-treating the plasma samples according to the method of S2 of Example 1, followed by LC/MS/MS determination according to the method of S3.

Measured concentration (No TCEP, theoretical 0.1 ng/mL, on ice, 0 min): 0.0965 ng/mL | Measured concentration (No TCEP, theoretical 0.1 ng/mL, on ice, 30 min): 0.0842 ng/mL | Measured concentration (No TCEP, theoretical 0.1 ng/mL, on ice, 60 min): 0.0763 ng/mL | Measured concentration (No TCEP, theoretical 0.1 ng/mL, on ice, 120 min): 0.0622 ng/mL | Measured concentration (No TCEP, theoretical 0.1 ng/mL, room temperature, 0 min): 0.0965 ng/mL | Measured concentration (No TCEP, theoretical 0.1 ng/mL, room temperature, 30 min): 0.0782 ng/mL | Measured concentration (No TCEP, theoretical 0.1 ng/mL, room temperature, 60 min): 0.0633 ng/mL | Measured concentration (No TCEP, theoretical 0.1 ng/mL, room temperature, 120 min): 0.0529 ng/mL | Measured concentration (No TCEP, theoretical 12.0 ng/mL, on ice, 0 min): 12.3 ng/mL | Measured concentration (No TCEP, theoretical 12.0 ng/mL, on ice, 30 min): 10.3 ng/mL | Measured concentration (No TCEP, theoretical 12.0 ng/mL, on ice, 60 min): 9.65 ng/mL | Measured concentration (No TCEP, theoretical 12.0 ng/mL, on ice, 120 min): 7.23 ng/mL | Measured concentration (No TCEP, theoretical 12.0 ng/mL, room temperature, 0 min): 12.3 ng/mL | Measured concentration (No TCEP, theoretical 12.0 ng/mL, room temperature, 30 min): 9.45 ng/mL | Measured concentration (No TCEP, theoretical 12.0 ng/mL, room temperature, 60 min): 8.38 ng/mL | Measured concentration (No TCEP, theoretical 12.0 ng/mL, room temperature, 120 min): 6.57 ng/mL | Measured concentration (TCEP 10 mg/ml, theoretical 0.1 ng/mL, on ice, 0 min): 0.0965 ng/mL | Measured concentration (TCEP 10 mg/ml, theoretical 0.1 ng/mL, on ice, 30 min): 0.0942 ng/mL | Measured concentration (TCEP 10 mg/ml, theoretical 0.1 ng/mL, on ice, 60 min): 0.0863 ng/mL | Measured concentration (TCEP 10 mg/ml, theoretical 0.1 ng/mL, on ice, 120 min): 0.0782 ng/mL | Measured concentration (TCEP 10 mg/ml, theoretical 0.1 ng/mL, room temperature, 0 min): 0.0965 ng/mL | Measured concentration (TCEP 10 mg/ml, theoretical 0.1 ng/mL, room temperature, 30 min): 0.0952 ng/mL | Measured concentration (TCEP 10 mg/ml, theoretical 0.1 ng/mL, room temperature, 60 min): 0.0833 ng/mL | Measured concentration (TCEP 10 mg/ml, theoretical 0.1 ng/mL, room temperature, 120 min): 0.0729 ng/mL | Measured concentration (TCEP 10 mg/ml, theoretical 12.0 ng/mL, on ice, 0 min): 12.3 ng/mL | Measured concentration (TCEP 10 mg/ml, theoretical 12.0 ng/mL, on ice, 30 min): 11.9 ng/mL | Measured concentration (TCEP 10 mg/ml, theoretical 12.0 ng/mL, on ice, 60 min): 10.65 ng/mL | Measured concentration (TCEP 10 mg/ml, theoretical 12.0 ng/mL, on ice, 120 min): 9.92 ng/mL | Measured concentration (TCEP 10 mg/ml, theoretical 12.0 ng/mL, room temperature, 0 min): 12.3 ng/mL | Measured concentration (TCEP 10 mg/ml, theoretical 12.0 ng/mL, room temperature, 30 min): 11.7 ng/mL | Measured concentration (TCEP 10 mg/ml, theoretical 12.0 ng/mL, room temperature, 60 min): 10.4 ng/mL | Measured concentration (TCEP 10 mg/ml, theoretical 12.0 ng/mL, room temperature, 120 min): 9.45 ng/mL | Measured concentration (TCEP 50 mg/ml, theoretical 0.1 ng/mL, on ice, 0 min): 0.0965 ng/mL | Measured concentration (TCEP 50 mg/ml, theoretical 0.1 ng/mL, on ice, 30 min): 0.0956 ng/mL | Measured concentration (TCEP 50 mg/ml, theoretical 0.1 ng/mL, on ice, 60 min): 0.0932 ng/mL | Measured concentration (TCEP 50 mg/ml, theoretical 0.1 ng/mL, on ice, 120 min): 0.0911 ng/mL | Measured concentration (TCEP 50 mg/ml, theoretical 0.1 ng/mL, room temperature, 0 min): 0.0965 ng/mL | Measured concentration (TCEP 50 mg/ml, theoretical 0.1 ng/mL, room temperature, 30 min): 0.0935 ng/mL | Measured concentration (TCEP 50 mg/ml, theoretical 0.1 ng/mL, room temperature, 60 min): 0.0914 ng/mL | Measured concentration (TCEP 50 mg/ml, theoretical 0.1 ng/mL, room temperature, 120 min): 0.0895 ng/mL | Measured concentration (TCEP 50 mg/ml, theoretical 12.0 ng/mL, on ice, 0 min): 12.3 ng/mL | Measured concentration (TCEP 50 mg/ml, theoretical 12.0 ng/mL, on ice, 30 min): 12.2 ng/mL | Measured concentration (TCEP 50 mg/ml, theoretical 12.0 ng/mL, on ice, 60 min): 11.9 ng/mL | Measured concentration (TCEP 50 mg/ml, theoretical 12.0 ng/mL, on ice, 120 min): 11.4 ng/mL | Measured concentration (TCEP 50 mg/ml, theoretical 12.0 ng/mL, room temperature, 0 min): 12.3 ng/mL | Measured concentration (TCEP 50 mg/ml, theoretical 12.0 ng/mL, room temperature, 30 min): 12.1 ng/mL | Measured concentration (TCEP 50 mg/ml, theoretical 12.0 ng/mL, room temperature, 60 min): 11.9 ng/mL | Measured concentration (TCEP 50 mg/ml, theoretical 12.0 ng/mL, room temperature, 120 min): 10.6 ng/mL | Measured concentration (TCEP 100 mg/ml, theoretical 0.1 ng/mL, on ice, 0 min): 0.0965 ng/mL | Measured concentration (TCEP 100 mg/ml, theoretical 0.1 ng/mL, on ice, 30 min): 0.0958 ng/mL | Measured concentration (TCEP 100 mg/ml, theoretical 0.1 ng/mL, on ice, 60 min): 0.0942 ng/mL | Measured concentration (TCEP 100 mg/ml, theoretical 0.1 ng/mL, on ice, 120 min): 0.0951 ng/mL | Measured concentration (TCEP 100 mg/ml, theoretical 0.1 ng/mL, room temperature, 0 min): 0.0965 ng/mL | Measured concentration (TCEP 100 mg/ml, theoretical 0.1 ng/mL, room temperature, 30 min): 0.0955 ng/mL | Measured concentration (TCEP 100 mg/ml, theoretical 0.1 ng/mL, room temperature, 60 min): 0.0934 ng/mL | Measured concentration (TCEP 100 mg/ml, theoretical 0.1 ng/mL, room temperature, 120 min): 0.0915 ng/mL | Measured concentration (TCEP 100 mg/ml, theoretical 12.0 ng/mL, on ice, 0 min): 12.3 ng/mL | Measured concentration (TCEP 100 mg/ml, theoretical 12.0 ng/mL, on ice, 30 min): 12.4 ng/mL | Measured concentration (TCEP 100 mg/ml, theoretical 12.0 ng/mL, on ice, 60 min): 12.1 ng/mL | Measured concentration (TCEP 100 mg/ml, theoretical 12.0 ng/mL, on ice, 120 min): 11.8 ng/mL | Measured concentration (TCEP 100 mg/ml, theoretical 12.0 ng/mL, room temperature, 0 min): 12.3 ng/mL | Measured concentration (TCEP 100 mg/ml, theoretical 12.0 ng/mL, room temperature, 30 min): 12.2 ng/mL | Measured concentration (TCEP 100 mg/ml, theoretical 12.0 ng/mL, room temperature, 60 min): 11.9 ng/mL | Measured concentration (TCEP 100 mg/ml, theoretical 12.0 ng/mL, room temperature, 120 min): 11.6 ng/mL | Stability in plasma (in words) (TCEP added at a concentration of 50 mg/ml or more): good stability
Structure (SMILES): COC(=O)[C@H](c1ccccc1Cl)N1CC[C@@H]2SC(=O)C=C2C1 [(7aS,2′S)-2-oxo-clopidogrel, methyl(S)-2-(2-chlorophenyl)-2-((S)-2-oxo-2,6,7,7a-tetrahydrothieno[3,2-c]pyridin-5 (4H)-yl)acetate]

Source: US20260140098A1, “METHOD FOR TREATING PLASMA SAMPLE CONTAINING (7aS,2'S)-2-OXO-CLOPIDOGREL AND METHOD FOR DETERMINING THE SAME” (CHENGDU SHIBEIKANG BIOMEDICAL TECHNOLOGY CO., LTD., priority 2021, published 2026)
